Legend:
CDK9/CycT1 = biological target: T1, CDK9/CycT1 (Homo sapiens, UniProt P50750); test: CDK9/CycT1 high ATP kinase assay (Method 1b, TR-FRET); assay type: biochemical; details: 2 mM ATP; for IC50: Method 1b; for Selectivity high ATP CDK9 over high ATP CDK2: IC50 (high ATP CDK2)/IC50 (high ATP CDK9): Methods 1b and 2b
T1 construct: Recombinant full-length His-tagged human CDK9 and CycT1; His; purchased Invitrogen PV4131; host or cells: insect cells
Procedure: 1b. CDK9/CycT1 High ATP Kinase Assay
CDK9/CycT1-inhibitory activity of compounds of the present invention at a high ATP concentration after preincubation of enzyme and test compounds was quantified employing the CDK9/CycT1 TR-FRET assay as described in the following paragraphs.
Recombinant full-length His-tagged human CDK9 and CycT1, expressed in insect cells and purified by Ni-NTA affinity chromatography, were purchase from Invitrogen (Cat. No PV4131). As substrate for the kinase reaction biotinylated peptide biotin-Ttds-YISPLKSPYKISEG (C-terminus in amid form) was used which can be purchased e.g. form the company JERINI peptide technologies (Berlin, Germany). For the assay 50 nl of a 100 fold concentrated solution of the test compound in DMSO was pipetted into a black low volume 384 well microtiter plate (Greiner Bio-One, Frickenhausen, Germany), 2 μl of a solution of CDK9/CycT1 in aqueous assay buffer [50 mM Tris/HCl pH 8.0, 10 mM MgCl2, 1.0 mM dithiothreitol, 0.1 mM sodium ortho-vanadate, 0.01% (v/v) Nonidet-P40 (Sigma)] were added and the mixture was incubated for 15 min at 22° C. to allow pre-binding of the test compounds to the enzyme before the start of the kinase reaction. Then the kinase reaction was started by the addition of 3 μl of a solution of adenosine-tri-phosphate (ATP, 3.3 mM=> final conc. in the 5 μl assay volume is 2 mM) and substrate (1.67 μM=> final conc. in the 5 μl assay volume is 1 μM) in assay buffer and the resulting mixture was incubated for a reaction time of 25 min at 22° C. The concentration of CDK9/CycT1 was adjusted depending of the activity of the enzyme lot and was chosen appropriate to have the assay in the linear range, typical concentrations were in the range of 0.5 μg/mL. The reaction was stopped by the addition of 5 μl of a solution of TR-FRET detection reagents (0.2 μM streptavidine-XL665 [Cisbio Bioassays, Codolet, France] and 1 nM anti-RB(pSer807/pSer811)-antibody from BD Pharmingen [#558389] and 1.2 nM LANCE EU-W1024 labeled anti-mouse IgG antibody [Perkin-Elmer, product no. AD0077]) in an aqueous EDTA-solution (100 mM EDTA, 0.2% (w/v) bovine serum albumin in 100 mM HEPES/NaOH pH 7.0).
The resulting mixture was incubated 1 h at 22° C. to allow the formation of complex between the phosphorylated biotinylated peptide and the detection reagents. Subsequently the amount of phosphorylated substrate was evaluated by measurement of the resonance energy transfer from the Euchelate to the streptavidine-XL. Therefore, the fluorescence emissions at 620 nm and 665 nm after excitation at 350 nm was measured in a HTRF reader, e.g. a Rubystar (BMG Labtechnologies, Offenburg, Germany) or a Viewlux (Perkin-Elmer). The ratio of the emissions at 665 nm and at […] was taken as the measure for the amount of phosphorylated substrate. The data were normalised (enzyme reaction without inhibitor=0% inhibition, all other assay components but no enzyme=100% inhibition).

DU145 cells = test: Proliferation assay DU145 (Method 3, crystal violet); assay type: cell-based; details: Homo sapiens, DU-145, 96 h; DU145, 4 days incubation; read-out: Inhibition of DU145 cell proliferation IC50
Procedure: Cultivated tumour cells (HeLa, human cervical tumour cells, ATCC CCL-2; NCI-H460, human non-small cell lung carcinoma cells, ATCC HTB-177; A2780, human ovarian carcinoma cells, ECACC #93112519; DU 145, hormone-independent human prostate carcinoma cells, ATCC HTB-81; HeLa-MaTu-ADR, multidrug-resistant human cervical carcinoma cells, EPO-GmbH Berlin; Caco-2, human colorectal carcinoma cells, ATCC HTB-37; B16F10, mouse melanoma cells, ATCC CRL-6475) were plated at a density of 5,000 cells/well (DU145, HeLa-MaTu-ADR), 3,000 cells/well (NCI-H460, HeLa), 2,500 cells/well (A2780), 1,500 cells/well (Caco-2), or 1,000 cells/well (B16F10) in a 96-well multititer plate in 200 μL of their respective growth medium supplemented 10% fetal calf serum. After 24 hours, the cells of one plate (zero-point plate) were stained with crystal violet (see below), while the medium of the other plates was replaced by fresh culture medium (200 μl), to which the test substances were added in various concentrations (0 μM, as well as in the range of 0.001-10 μM; the final concentration of the solvent dimethyl sulfoxide was 0.5%). The cells were incubated for 4 days in the presence of test substances. Cell proliferation was determined by staining the cells with crystal violet: the cells were fixed by adding 20 μl/measuring point of an 11% glutaric aldehyde solution for 15 minutes at room temperature. After three washing cycles of the fixed cells with water, the plates were dried at room temperature. The cells were stained by adding 100 μl/measuring point of a 0.1% crystal violet solution (pH 3.0). After three washing cycles of the stained cells with water, the plates were dried at room temperature. The dye was dissolved by adding 100 μl/measuring point of a 10% acetic acid solution. The extinction was determined by photometry at a wavelength of 595 nm. The change of cell number, in percent, was calculated by normalization of the measured values to the extinction values of the zero-point plate (=0%) and the extinction of the untreated (0 μm) cells (=100%). […]

HeLa cells = test: Proliferation assay HeLa (Method 3, crystal violet); assay type: cell-based; details: Homo sapiens, 96 h, 4 days incubation, read-out: Inhibition of HeLa cell proliferation IC50
Procedure: Cultivated tumour cells (HeLa, human cervical tumour cells, ATCC CCL-2; NCI-H460, human non-small cell lung carcinoma cells, ATCC HTB-177; A2780, human ovarian carcinoma cells, ECACC #93112519; DU 145, hormone-independent human prostate carcinoma cells, ATCC HTB-81; HeLa-MaTu-ADR, multidrug-resistant human cervical carcinoma cells, EPO-GmbH Berlin; Caco-2, human colorectal carcinoma cells, ATCC HTB-37; B16F10, mouse melanoma cells, ATCC CRL-6475) were plated at a density of 5,000 cells/well (DU145, HeLa-MaTu-ADR), 3,000 cells/well (NCI-H460, HeLa), 2,500 cells/well (A2780), 1,500 cells/well (Caco-2), or 1,000 cells/well (B16F10) in a 96-well multititer plate in 200 μL of their respective growth medium supplemented 10% fetal calf serum. After 24 hours, the cells of one plate (zero-point plate) were stained with crystal violet (see below), while the medium of the other plates was replaced by fresh culture medium (200 μl), to which the test substances were added in various concentrations (0 μM, as well as in the range of 0.001-10 μM; the final concentration of the solvent dimethyl sulfoxide was 0.5%). The cells were incubated for 4 days in the presence of test substances. Cell proliferation was determined by staining the cells with crystal violet: the cells were fixed by adding 20 μl/measuring point of an 11% glutaric aldehyde solution for 15 minutes at room temperature. After three washing cycles of the fixed cells with water, the plates were dried at room temperature. The cells were stained by adding 100 μl/measuring point of a 0.1% crystal violet solution (pH 3.0). After three washing cycles of the stained cells with water, the plates were dried at room temperature. The dye was dissolved by adding 100 μl/measuring point of a 10% acetic acid solution. The extinction was determined by photometry at a wavelength of 595 nm. The change of cell number, in percent, was calculated by normalization of the measured values to the extinction values of the zero-point plate (=0%) and the extinction of the untreated (0 μm) cells (=100%). The IC50 values (inhibitory concentration at 50% of maximal effect) were determined by means of a 4 parameter fit.

T1 sequence (P50750 whole entry): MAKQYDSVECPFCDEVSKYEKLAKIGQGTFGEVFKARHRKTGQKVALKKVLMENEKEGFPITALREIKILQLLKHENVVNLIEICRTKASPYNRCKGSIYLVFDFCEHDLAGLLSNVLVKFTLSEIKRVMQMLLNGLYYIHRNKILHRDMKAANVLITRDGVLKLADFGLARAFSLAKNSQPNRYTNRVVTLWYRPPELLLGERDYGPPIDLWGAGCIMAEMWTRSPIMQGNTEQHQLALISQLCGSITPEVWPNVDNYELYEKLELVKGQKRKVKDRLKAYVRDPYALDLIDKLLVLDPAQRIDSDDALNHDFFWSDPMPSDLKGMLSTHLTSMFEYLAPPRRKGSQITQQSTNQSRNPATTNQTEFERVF
T1 sequence (O60563 whole entry partner): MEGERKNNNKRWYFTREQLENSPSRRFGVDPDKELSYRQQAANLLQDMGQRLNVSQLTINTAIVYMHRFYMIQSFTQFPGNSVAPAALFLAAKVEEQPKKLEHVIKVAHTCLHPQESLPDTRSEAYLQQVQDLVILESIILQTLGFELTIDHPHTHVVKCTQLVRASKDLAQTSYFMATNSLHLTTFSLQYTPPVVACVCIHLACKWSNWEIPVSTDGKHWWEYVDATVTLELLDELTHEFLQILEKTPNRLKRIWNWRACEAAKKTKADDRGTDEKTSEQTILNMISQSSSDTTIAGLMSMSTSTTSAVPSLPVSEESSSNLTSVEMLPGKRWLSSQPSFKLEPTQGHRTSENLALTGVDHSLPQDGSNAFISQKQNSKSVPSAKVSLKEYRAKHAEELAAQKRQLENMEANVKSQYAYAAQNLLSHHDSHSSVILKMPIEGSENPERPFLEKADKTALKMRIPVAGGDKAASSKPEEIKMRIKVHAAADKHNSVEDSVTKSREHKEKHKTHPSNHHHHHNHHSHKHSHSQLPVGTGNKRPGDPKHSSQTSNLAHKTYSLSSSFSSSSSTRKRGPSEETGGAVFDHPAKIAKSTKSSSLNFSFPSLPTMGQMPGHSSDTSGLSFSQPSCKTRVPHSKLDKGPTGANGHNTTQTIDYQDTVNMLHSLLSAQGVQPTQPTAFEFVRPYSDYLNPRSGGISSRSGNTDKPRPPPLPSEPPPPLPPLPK

| IC50 (CDK9/CycT1) [nM] | Selectivity high ATP CDK9 over high ATP CDK2: IC50 (high ATP CDK2)/IC50 (high ATP CDK9) (CDK9/CycT1) | IC50 (DU145 cells) [nM] | IC50 (HeLa cells) [nM] | Compound |
| --- | --- | --- | --- | --- |
| 9 | 147 | 360 | 270 | CS(=O)(=O)Cc1cccc(Nc2ncc(F)c(-c3ccc(F)c4ccoc34)n2)c1 [Example 1, 5-Fluoro-4-(4-fluoro-1-benzofuran-7-yl)-N-{3-[(methylsulfonyl)methyl]-phenyl}pyrimidin-2-amine] |
| 9 | 102 | – | 335 | CCS(=O)(=O)Cc1cccc(Nc2ncc(F)c(-c3ccc(F)c4ccoc34)n2)c1 [Example 2, N-{3-[(Ethylsulfonyl)methyl]phenyl}-5-fluoro-4-(4-fluoro-1-benzofuran-7-yl)pyrimidin-2-amine] |
| 2 | – | 298 | 100 | CS(=O)(=O)Cc1cc(F)cc(Nc2ncc(F)c(-c3ccc(F)c4ccoc34)n2)c1 [Example 3] |
| 1 | 8560 | 237 | 100 | Cc1cc(CS(C)(=O)=O)cc(Nc2ncc(F)c(-c3ccc(F)c4ccoc34)n2)c1 [Example 4, 5-Fluoro-4-(4-fluoro-1-benzofuran-7-yl)-N-{3-methyl-5-[(methylsulfonyl)methyl]-phenyl}pyrimidin-2-amine] |
